This is an account of results in patent US20240301474A1, “NUCLEASES FOR SIGNAL AMPLIFICATION” (Amazon Technologies, Inc., priority 2021, published 2024).

“Also recorded” adds a separate entry of the source. {FAM} = 6-carboxyfluorescein (IDT 56-FAM); {IABkFQ} = Iowa Black FQ quencher A value given as a limit tells only on which side of the number the result lay.

Data set [1] addresses T1, TtCsm6 (Thermus thermophilus, UniProt Q53W17, G18R). The conditions noted are these: 100 nM TtCsm6, 10 μM cA4, FIG. 22.
Description: (§4) Varying concentrations of nuclease (SyCsx1, PfuCsx1, or TtCsm6) in reaction buffer (2.1 NEB Buffer-50 mM NaCl, 10 mM Tris-HCl, 10 mM MgCl2, 100 μg/ml BSA) with 1 U/μl murine RNase inhibitor (NEB) and 600 nM FAM-Q reporter (IDT) was mixed with varying concentrations of cA3, cA4, cA6, rA3>P or rA4>P (Biolog or IDT). Negative control was water free of activator. Measurements were taken at 37° C. every 1 min in a Tecan Infinite 200 PRO plate reader (λex, 485 nm; λem, 535 nm).
(§5) The objective of these experiments was to determine the preferred reporters for SyCsx1, PfuCsx1, and TtCsm6 incubated with cyclic activator cA4.
Data set [2] concerns PfuCsx1. In words: Reporter preference assay, PfuCsx1 activated by cA4. The conditions noted are these: 100 nM PfuCsx1, 10 μM cA4, FIG. 21.
Sequence of PfuCsx1 (as listed by the source): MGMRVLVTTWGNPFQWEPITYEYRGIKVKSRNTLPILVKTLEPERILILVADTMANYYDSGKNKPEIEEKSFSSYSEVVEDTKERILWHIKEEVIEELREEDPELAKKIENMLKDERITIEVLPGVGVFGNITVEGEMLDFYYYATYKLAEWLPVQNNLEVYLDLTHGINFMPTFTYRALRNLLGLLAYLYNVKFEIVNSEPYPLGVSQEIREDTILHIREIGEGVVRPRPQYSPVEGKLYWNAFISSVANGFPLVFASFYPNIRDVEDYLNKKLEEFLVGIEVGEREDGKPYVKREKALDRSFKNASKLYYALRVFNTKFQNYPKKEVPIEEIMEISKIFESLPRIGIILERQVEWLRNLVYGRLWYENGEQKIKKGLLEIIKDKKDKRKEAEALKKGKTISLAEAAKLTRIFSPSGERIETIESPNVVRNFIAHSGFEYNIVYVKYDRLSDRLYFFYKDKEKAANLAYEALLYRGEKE
Description: as §4, §5
Data set [3] deals with SyCsx1. In words: Reporter preference assay, SyCsx1 activated by cA4. Particulars: 100 nM SyCsx1, 10 μM cA4, FIG. 20.
Sequence of SyCsx1 (as listed by the source): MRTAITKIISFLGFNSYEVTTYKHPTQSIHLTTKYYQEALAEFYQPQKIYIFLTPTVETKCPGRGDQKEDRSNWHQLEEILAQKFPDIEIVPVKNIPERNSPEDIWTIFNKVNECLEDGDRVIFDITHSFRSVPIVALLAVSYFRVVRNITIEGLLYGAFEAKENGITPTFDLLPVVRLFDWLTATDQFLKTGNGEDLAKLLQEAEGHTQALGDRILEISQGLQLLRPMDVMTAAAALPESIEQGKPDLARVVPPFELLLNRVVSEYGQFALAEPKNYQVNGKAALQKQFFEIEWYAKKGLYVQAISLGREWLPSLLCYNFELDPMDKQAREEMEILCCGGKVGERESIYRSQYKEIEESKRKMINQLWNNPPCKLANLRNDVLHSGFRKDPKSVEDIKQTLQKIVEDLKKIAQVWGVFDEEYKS
Description: as §4, §5
The test system of data set [4] is SyCsx1. Kind of data set: Activation of SyCsx1 by linear and cyclic activators (FAM-Q fluorescence). The conditions noted are these: 100 nM SyCsx1, FAM-Q polyC ssRNA reporter; for activation of SyCsx1 (fluorescence time course): 37° C., FIG. 14A/14B; for rapidity of SyCsx1 activation (time until maximum fluorescence): FIG. 14B.
Description: (§6) The objective of these experiments was to assess activation of SyCsx1, PfuCsx1, and TtCsm6 by incubating the nucleases with cyclic or linear activators.
as §4
In data set [5] the test system is PfuCsx1. Kind of data set: Activation of PfuCsx1 by linear and cyclic activators (FAM-Q fluorescence). The conditions noted are these: 100 nM PfuCsx1, FAM-Q polyA ssRNA reporter, FIG. 15.
Description: as §6, §4
Data set [6] has as its target T1, TtCsm6. In words: Activation of TtCsm6 by linear and cyclic activators (fluorescence). The conditions noted are these: 100 nM TtCsm6, RNAse Alert (IDT) reporter, FIG. 16.
Description: as §6, §4
In the next data set the target is NucC enzyme (Escherichia coli, UniProt D7Y2H5). In words: NucC activation by cyclic and linear activator with dsM13 plasmid. The data set is classed as biochemical. Particulars: 10 nM NucC, 10 nM activator, 37° C., 4 hours. On the procedure:
The objective of this experiment was to achieve activation of the NucC enzyme by incubating this enzyme with its cyclic (c-triAMP) and linear (triAMP)>P activator and the dsM13 plasmid.
The conditions that were tested are outlined in Table 14 below.
A NucC Mix (dsM13) was prepared as outlined in Table 15 below.
The mixture described in Table 15 was divided into two PCT tubes. The mixture was then incubated at 37° C. for 4 hours. Next, the samples were run on a 1.5% agarose gel.

Data set [7] deals with PfuCsx1. Kind of data set: Limit of detection (LoD) assay, PfuCsx1 activated by rA4>P. Particulars: 100 nM PfuCsx1, FAM-Q polyA reporter; 0.01, 0.1, 1, 10 μM tested; FIG. 18.
Description: as §4
For data set [8], the system named is SyCsx1. Kind of data set: Limit of detection (LoD) assay, SyCsx1 activated by rA4>P. Particulars: 10 nM SyCsx1, FAM-Q polyC reporter; 0.1, 1, 10 nM tested; FIG. 17.
Description: as §4
In data set [9] the target is T1, TtCsm6. Kind of data set: Limit of detection (LoD) assay, TtCsm6 activated by rA4>P. Particulars: 100 nM TtCsm6, FAM-Q polyC reporter; 0.01, 0.1, 1, 10 μM tested; FIG. 19.
Description: as §4
The subject of data set [10] is ssM13 (M13mp18 single-stranded plasmid). In words: NucC activity assay with M13 plasmid (single-stranded). Format: biochemical. The conditions noted are these: 10 nM NucC, 10 nM c(triAMP), 37° C., 2:30 hours, 1% agarose gel. On the procedure:
(§1) The objective of this experiment was to determine whether the NucC enzyme cleaves both double-stranded DNA and single-stranded DNA by incubating the enzyme with its cyclic activator (c-triAMP) and the dsM13 or ssM13 plasmid.
(§2) The conditions that were tested are outlined in Table 11 below.
A second NucC Mix (ssM13) was prepared as outlined in Table 13 below.
(§3) Each mixture described in Table 12 and Table 13 was divided into two PCT tubes. The mixture was then incubated at 37° C. for 2:30 hours. Next, the samples were run on a 1% agarose gel.

Data set [11] concerns dsM13 (M13mp18 RF I plasmid). In words: NucC activity assay with M13 plasmid (double-stranded). The data set is classed as biochemical. Particulars: 10 nM NucC, 10 nM c(triAMP), 37° C., 2:30 hours, 1% agarose gel. On the procedure: as §1, §2
A first NucC Mix (dsM13) was prepared as outlined in Table 12 below.
as §3

T1 sequence (Q53W17 whole entry G18R): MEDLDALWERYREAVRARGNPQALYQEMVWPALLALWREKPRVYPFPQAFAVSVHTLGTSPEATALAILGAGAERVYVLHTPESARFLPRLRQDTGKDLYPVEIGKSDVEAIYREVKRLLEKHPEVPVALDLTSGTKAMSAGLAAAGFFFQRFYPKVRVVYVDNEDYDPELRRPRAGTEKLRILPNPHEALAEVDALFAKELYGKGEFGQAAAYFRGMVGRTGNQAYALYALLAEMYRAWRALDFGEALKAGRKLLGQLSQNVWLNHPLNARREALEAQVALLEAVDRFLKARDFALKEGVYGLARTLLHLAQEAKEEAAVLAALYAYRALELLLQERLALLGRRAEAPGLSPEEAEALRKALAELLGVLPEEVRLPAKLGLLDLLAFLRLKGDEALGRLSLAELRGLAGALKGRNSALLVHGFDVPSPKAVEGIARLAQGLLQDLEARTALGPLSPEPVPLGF

As to “5′-/56 FAM/rArUrGrUrCrCrCrCrUrGrArA/3IABKFQ/-3′ (AUGUCCCCUGAA; RNA, 5' {FAM}, 3' {IABkFQ}, backbone not given here) [FAM-Q UCU]”, the “reporter preference upon cleavage by TtCsm6” value with TtCsm6 [1] is “best reporters”. Also, in the data set with PfuCsx1 [2], the “reporter preference upon cleavage by PfuCsx1” value is listed as “best reporters”. Moreover, in the data set on SyCsx1 [3], the “reporter preference upon cleavage by SyCsx1” value was “best reporters”.

Take cyclic hexaAMP [cA6]: the “activation of SyCsx1 (fluorescence time course)” value (from here on “activation of SyCsx1”) with SyCsx1 [4] was “activated”.

Consider cyclic tetraAMP [cA4], for which, in the data set on PfuCsx1 [5], the “activation of PfuCsx1 (fluorescence time course)” value is reported as “activated”. Further, in the data set with SyCsx1 [4], the “activation of SyCsx1” value is on record as “activated” and the “rapidity of SyCsx1 activation (time until maximum fluorescence)” value is “most rapid activations”. The “activation of TtCsm6 (fluorescence time course)” value on TtCsm6 [6] is recorded as “activated”.

Regarding cyclic triAMP [c-triAMP], the “degradation of the dsM13 plasmid by NucC in the presence of activator” value at NucC enzyme (FIG. 13) is “complete degradation”. Further, the “activation of the NucC enzyme” value at NucC enzyme (dsM13 plasmid, 1.5% agarose gel) was “achieved; also recorded: activated”.

Regarding linear tetraAMP>P [rA4>P], the “activator concentration that activates PfuCsx1 (detection limit)” value in the data set on PfuCsx1 [7] is not below 1 µM. Besides, in the data set with SyCsx1 [8], the “activator concentration that activates SyCsx1 (detection limit)” value came out at 0.1 nM. Further, the “activation of PfuCsx1 (fluorescence time course)” value with PfuCsx1 [5] is recorded as “activated”. Also, on TtCsm6 [9], the “activator concentration that activates TtCsm6 (detection limit)” value is not below 1 µM. In addition, in the data set on SyCsx1 [4], the “activation of SyCsx1” value is on record as “activated” and the “rapidity of SyCsx1 activation (time until maximum fluorescence)” value was “most rapid activations”. In addition, the “activation of TtCsm6 (fluorescence time course)” value at TtCsm6 [6] was “activated”.

For linear triAMP>P [rA3>P], the “activation of SyCsx1” value with SyCsx1 [4] is on record as “activated”.

B1: NucC: nuclease; amino acid sequence SEQ ID NO: 2 (NucC wild sequence) (protein, listed as Escherichia coli)
chain: MSDWSLSQLFASLHEDIQLRLGTARKAFQHPGAKGDASEGVWIEMLDTYLPKRYQAANAFVVDSLGNFSDQIDVVVFDRQYSPFIFKFNEQIIVPAESVYAVFEAKQSASADLVAYAQRKVASVRRLHRTSLPIPHAGGTYPAKPLIPILGGLLTFESDWSPALGMSFDKALNGDLSDGRLDMGCVASHGHFYFNNIDSKFNFEHGNKPATAFLFRLIAQLQFSGTVPMIDIDAYGKWLAN
Take B1: the “cleavage of single-stranded nucleic acid” value in data set [10] is listed as “not”. For the same molecule, the “cleavage of double-stranded DNA” value in data set [11] is given as “cleaved”.
